Patent publication US20230027985A1, “SUBSTITUTED HYDANTOINAMIDES AS ADAMTS7 ANTAGONISTS” (Bayer Aktiengesellschaft, priority 2019, published 2023)

Columns and labels:
[1] = target: T1, Purified recombinant ADAMTS-7 (rat prodomain/human catalytic domain, SEQ ID No. 01 or 02) (Homo sapiens, UniProt Q9UKP4); assay: Assay for ADAMTS-7 enzymatic activity (FRET substrate cleavage); assay type: biochemical; settings: FRET substrate SEQ ID No. 11, 120 min at 32° C.; read-out: ADAMTS7-IC50
T1 construct: rat ADAMTS-7 signal peptide + prodomain (rat 1-217, Q1EHB3) (N); 2xStrep tag (C); 6xHis tag (C); made in house; host or cells: Expi293 cells
T1 sequence (Q9UKP4 237-537): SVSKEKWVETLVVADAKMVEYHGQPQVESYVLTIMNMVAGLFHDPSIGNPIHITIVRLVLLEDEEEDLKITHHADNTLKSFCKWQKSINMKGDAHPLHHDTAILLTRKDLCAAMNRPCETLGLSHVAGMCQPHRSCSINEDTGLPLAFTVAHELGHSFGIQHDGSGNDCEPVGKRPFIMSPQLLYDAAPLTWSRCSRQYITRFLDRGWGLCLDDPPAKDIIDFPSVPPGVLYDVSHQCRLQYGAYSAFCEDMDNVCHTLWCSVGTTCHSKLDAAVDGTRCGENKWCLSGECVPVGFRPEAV
In short: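 IC50 values were fitted from percent inhibition across test-compound concentrations. Fluorescence gain (ex 485, em 520 nm) reports cleavage of a thrombospondin-1 (275-289) FRET peptide with QXL520 quencher, after 120 min at 32 °C. The enzyme, about 20 nM, was in HEPES pH 8.0 buffer with NaCl, CaCl2, ZnCl2 and Brij.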

ADAMTS4 = target: T2, ADAMTS4 (Homo sapiens, UniProt O75173); assay: Selectivity assay for ADAMTS-7 modulators (FRET), ADAMTS4; assay type: biochemical; settings: 50 nM enzyme (R&D 4307-AD), 1 μM Dabcyl/Edans FRET substrate, 120 min at 32° C.
T2 construct: purchased R&D 4307-AD
T2 sequence (O75173 213-685 limits assumed): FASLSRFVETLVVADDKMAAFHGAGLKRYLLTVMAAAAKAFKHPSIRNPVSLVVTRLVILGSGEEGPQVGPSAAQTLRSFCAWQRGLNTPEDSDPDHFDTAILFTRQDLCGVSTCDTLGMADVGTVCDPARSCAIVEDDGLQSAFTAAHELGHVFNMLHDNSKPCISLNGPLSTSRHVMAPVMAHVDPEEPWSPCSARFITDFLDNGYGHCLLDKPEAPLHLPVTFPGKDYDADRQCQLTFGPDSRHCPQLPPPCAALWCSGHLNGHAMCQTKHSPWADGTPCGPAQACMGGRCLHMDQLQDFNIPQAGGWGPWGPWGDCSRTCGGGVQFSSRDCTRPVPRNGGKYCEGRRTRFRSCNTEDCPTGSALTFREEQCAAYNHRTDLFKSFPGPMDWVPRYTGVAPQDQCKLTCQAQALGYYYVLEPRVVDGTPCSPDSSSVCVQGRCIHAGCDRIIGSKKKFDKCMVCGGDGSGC
In short: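 Enzyme in 50 mM Tris pH 7.5, 150 mM NaCl, 10 mM CaCl2, 0.05% Brij, preincubated with compound in DMSO; reaction started with FRET substrate. Fluorescence increase read after 120 min at 32° C; IC50 from percent inhibition versus compound concentration.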

IC50 [1]	IC50 (ADAMTS4)	SMILES
320 nM	13000 nM	CC1(C)CC1C1(CNC(=O)c2cnn(-c3ccccc3)n2)NC(=O)NC1=O (stereo not drawn) [Example 43, ent-N-{[4-(2,2-dimethylcyclopropyl)-2,5-dioxoimidazolidin-4-yl]methyl}-2-phenyl-2H-1,2,3-triazole-4-carboxamide]
4 nM	320 nM	Cn1ccnc1C1(CNC(=O)c2cnn(-c3ccc(F)cc3)n2)NC(=O)NC1=O (racemic) [Example 141, rac-2-(4-fluorophenyl)-N-{[4-(1-methyl-1H-imidazol-2-yl)-2,5-dioxoimidazolidin-4-yl]methyl}-2H-1,2,3-triazole-4-carboxamide]
62 nM	8500 nM	O=C1NC(=O)C(CNC(=O)c2cnn(-c3ccccc3)n2)(C2CCCOC2)N1 (racemic) [Example 7, rac-N-{[2,5-dioxo-4-(tetrahydro-2H-pyran-3-yl)imidazolidin-4-yl]methyl}-2-phenyl-2H-1,2,3-triazole-4-carboxamide]
62 nM	2900 nM	CCC(C)C1(CNC(=O)c2cnn(-c3ccc(F)cc3)n2)NC(=O)NC1=O (centres unmarked) [Example 102, diamix-N-[(4-sec-butyl-2,5-dioxoimidazolidin-4-yl)methyl]-2-(4-fluorophenyl)-2H-1,2,3-triazole-4-carboxamide]
55 nM	14000 nM	O=C1NC(=O)C(CNC(=O)c2cnn(-c3ccccc3)n2)(C2CCC2)N1 (racemic) [Example 52, rac-N-[4-cyclobutyl-2,5-dioxoimidazolidin-4-yl)methyl]-2-phenyl-2H-1,2,3-triazole-4-carboxamide]
190 nM	17000 nM	CC(CO)C1(CNC(=O)c2cnn(-c3ccccc3)n2)NC(=O)NC1=O (centres unmarked) [Example 57]
12 nM	600 nM	O=C1NC(=O)C(CNC(=O)c2cnn(-c3cccc(F)c3)n2)(c2nccs2)N1 (racemic) [Example 108, rac-N-{[2,5-dioxo-4-(1,3-thiazol-2-yl)imidazolidin-4-yl]methyl}-2-(3-fluorophenyl)-2H-1,2,3-triazole-4-carboxamide]
15 nM	1400 nM	O=C1NC(=O)C(CNC(=O)c2cnn(-c3ccc(F)cc3)n2)(c2nccs2)N1 (stereo not drawn) [Example 114, ent-N-{[2,5-dioxo-4-(1,3-thiazol-2-yl)imidazolidin-4-yl]methyl}-2-(4-fluorophenyl)-2H-1,2,3-triazole-4-carboxamide]
27 nM	3500 nM	O=C1NC(=O)C(CNC(=O)c2cnn(-c3ccc(F)cc3)n2)(c2ncsc2C(F)(F)F)N1 (stereo not drawn) [Example 136, ent-N-({2,5-dioxo-4-[5-(trifluoromethyl)-1,3-thiazol-4-yl]imidazolidin-4-yl}methyl)-2-(4-fluorophenyl)-2H-1,2,3-triazole-4-carboxamide]
100 nM	2800 nM	Cc1nc(C2(CNC(=O)c3cnn(-c4ccc(F)cc4)n3)NC(=O)NC2=O)c(C)s1 (racemic) [Example 158, rac-N-{[4-(2,5-dimethyl-1,3-thiazol-4-yl)-2,5-dioxoimidazolidin-4-yl]methyl}-2-(4-fluorophenyl)-2H-1,2,3-triazole-4-carboxamide]
98 nM	20000 nM	CC(C)C1(CNC(=O)c2cnn(-c3ccc(F)cc3F)n2)NC(=O)NC1=O (racemic) [Example 87, rac-2-(2,4-difluorophenyl)-N-[(4-isopropyl-2,5-dioxoimidazolidin-4-yl)methyl]-2H-1,2,3-triazole-4-carboxamide]
7 nM	175 nM	O=C1NC(=O)[C@](CNC(=O)c2cnn(-c3ccc(F)c(F)c3)n2)(C2CC2)N1 [Example 8, N-{[(4R)-4-cyclopropyl-2,5-dioxoimidazolidin-4-yl]methyl}-2-(3,4-difluorophenyl)-2H-1,2,3-triazole-4-carboxamide]
52 nM	6000 nM	CC(C)C1(CNC(=O)c2cnn(-c3cc(F)c(F)c(F)c3)n2)NC(=O)NC1=O (racemic) [Example 99, rac-N-[(4-isopropyl-2,5-dioxoimidazolidin-4-yl)methyl]-2-(3,4,5-trifluorophenyl)-2H-1,2,3-triazole-4-carboxamide]
7 nM	910 nM	CC(C)C1(CNC(=O)c2cnn(-c3ccc(F)c(F)c3)n2)NC(=O)NC1=O (single isomer, unassigned; ent-2) [Example 123, ent-2-(3,4-difluorophenyl)-N-[(4-isopropyl-2,5-dioxoimidazolidin-4-yl)methyl]-2H-1,2,3-triazole-4-carboxamide]
5 nM	400 nM	O=C1NC(=O)C(CNC(=O)c2cnn(-c3ccc(Cl)c(F)c3)n2)(c2nccs2)N1 (single isomer, unassigned; ent-2) [Example 110, ent-2-(4-chloro-3-fluorophenyl)-N-{[2,5-dioxo-4-(1,3-thiazol-2-yl)imidazolidin-4-yl]methyl}-2H-1,2,3-triazole-4-carboxamide]
170 nM	19000 nM	CCCC1(CNC(=O)c2cnn(-c3ccc(F)cc3)n2)NC(=O)NC1=O (racemic) [Example 65, rac-N-[(2,5-dioxo-4-propylimidazolidin-4-yl)methyl]-2-(4-fluorophenyl)-2H-1,2,3-triazole-4-carboxamide]
10 nM	2800 nM	O=C1NC(=O)C(CNC(=O)c2cnn(-c3ccccc3)n2)(c2ccccn2)N1 (stereo not drawn) [Example 38, ent-N-{[2,5-dioxo-4-(pyridin-2-yl)imidazolidin-4-yl]methyl}-2-phenyl-2H-1,2,3-triazole-4-carboxamide]
190 nM	12000 nM	CC(C)C1(CNC(=O)c2cnn(-c3ccc(F)c(Cl)c3)n2)NC(=O)NC1=O (single isomer, unassigned; ent-2) [Example 126, ent-2-(3-chloro-4-fluorophenyl)-N-[(4-isopropyl-2,5-dioxoimidazolidin-4-yl)methyl]-2H-1,2,3-triazole-4-carboxamide]
12 nM	500 nM	O=C1NC(=O)[C@](CNC(=O)c2cnn(-c3ccc(Cl)c(F)c3)n2)(C2CC2)N1 [Example 30, 2-(4-chloro-3-fluorophenyl)-N-{[(4R)-4-cyclopropyl-2,5-dioxoimidazolidin-4-yl]methyl}-2H-1,2,3-triazole-4-carboxamide]
70 nM	15000 nM	CC(C)(C)C1(CNC(=O)c2cnn(-c3ccccc3)n2)NC(=O)NC1=O (racemic) [Example 49, rac-[(4-tert-butyl-2,5-dioxoimidazolidin-4-yl)methyl]-2-phenyl-2H-1,2,3-triazole-4-carboxamide]
3 nM	108 nM	Cn1ccnc1C1(CNC(=O)c2cnn(-c3cc(F)c(F)c(F)c3)n2)NC(=O)NC1=O (stereo not drawn) [Example 146, ent-N-{[4-(1-methyl-1H-imidazol-2-yl)-2,5-dioxoimidazolidin-4-yl]methyl}-2-(3,4,5-trifluorophenyl)-2H-1,2,3-triazole-4-carboxamide]
13 nM	580 nM	O=C1NC(=O)[C@](CNC(=O)c2cnn(-c3cccc(F)c3)n2)(C2CC2)N1 [Example 1, N-{[(4R)-4-cyclopropyl-2,5-dioxoimidazolidin-4-yl]methyl}-2-(3-fluorophenyl)-2H-1,2,3-triazole-4-carboxamide]
7 nM	14000 nM	O=C1NC(=O)[C@](CNC(=O)c2cnn(-c3ncccc3F)n2)(C2CC2)N1 [Example 101, N-{[(4R)-4-cyclopropyl-2,5-dioxoimidazolidin-4-yl]methyl}-2-(3-fluoropyridin-2-yl)-2H-1,2,3-triazole-4-carboxamide]
120 nM	4600 nM	O=C1NC(=O)[C@](CNC(=O)c2cnn(-c3ccc(C(F)(F)F)c(F)c3)n2)(C2CC2)N1 [Example 5, N-{[(4R)-4-cyclopropyl-2,5-dioxoimidazolidin-4-yl]methyl}-2-[3-fluoro-4-(trifluoromethyl)phenyl]-2H-1,2,3-triazole-4-carboxamide]
129 nM	1800 nM	O=C1NC(=O)[C@](CNC(=O)c2cnn(-c3ccccc3)c2)(C2CC2)N1 [Example 56, N-{[(4R)-4-cyclopropyl-2,5-dioxoimidazolidin-4-yl]methyl}-1-phenyl-1H-pyrazole-4-carboxamide]
